What was measured:
Type in all cases: in vivo
[1] = test system: Cucumber seeds; experiment: Cucumber phytotoxicity test (seed dressing); conditions: 0.5 mg/seed, 10 days after sowing; for Germination Count: sowing count 5
Protocol: Cucumber seeds were sown one by one in a 3 cm styrene cup filled with sterilized soil, where the seeds had been subjected to dressing treatment with a dressing dust presented in Formulation Example 1 or Formulation Example 2 so that the amount treated of the compound (1) or compound (2) would be a predetermined amount.
The germination rate was calculated 10 days after sowing. In addition, the germination rate was also calculated in the same manner for the case of sowing seeds treated with fluensulfone instead of Formulation Example 1 (compound (1)) or Formulation Example 2 (compound (2)) and for the case of sowing seeds treated with none of the compounds.

[2] = test system: Hymenolepis diminuta; experiment: Hymenolepis diminuta control test in infected rats; conditions: oral 20 mg/kg, 7 days after administration
Description: Rats were previously infected with Hymenolepis diminuta to prepare infected rats.

[3] = test system: Ascaridia galli; experiment: Ascaridia galli control test (in vitro); conditions: 50 ppm; 24 hours; 42° C.
Protocol: To 10 mL of a chemical solution prepared by using Ringer's solution so that the compound (1) or the compound (2) would have a predetermined concentration, 6 Ascaridia galli were introduced, and the solution was cultured in a water bath at 42° C. The number of surviving worms was counted 24 hours after the start of culture, and the mortal worm rate was calculated.

[4] = test system: Bursaphelenchus xylophilus; experiment: Bursaphelenchus xylophilus control test (cotton ball test method); parameters: key: Score 1: no influence on feeding (no effect); Score 2: feeding degree of 41% or more; Score 3: feeding degree of 21 to 40%; Score 4: feeding degree of 20% or less; Score 5: no feeding (great effect); conditions: 26° C., 5 days
Protocol: As a Bursaphelenchus xylophilus control test, the cotton ball test method was used to confirm the inhibitory effect on the proliferation of Bursaphelenchus xylophilus. […] The pressure was reduced in a desiccator for about 30 minutes, the solvent was removed by evaporation, and a test cotton ball was obtained. In addition, the gray mold as the test bacterium was cultured at 22° C. for 4 days in a Petri dish containing potato dextrose agar medium. Then, the test cotton ball was placed in the center of the Petri dish, and 1500 Bursaphelenchus xylophilus (100 μL of solution) were injected therein. This Petri dish was cultured at 26° C. for 5 days, and the feeding degree of the gray mold by Bursaphelenchus xylophilus was evaluated based on the following evaluation criteria. Further, evaluation was performed in the same manner when morantel was used instead of the compound (1) or (2).
Score 1: no influence on feeding (no effect)
Score 2: feeding degree of 41% or more
Score 3: feeding degree of 21 to 40%
Score 4: feeding degree of 20% or less
Score 5: no feeding (great effect)

[5] = test system: Heterodera glycines; experiment: Heterodera glycines control test (in vitro); conditions: 10 ppm; second stage larvae; 2 days after addition; 25° C.
Protocol: Each well of a 24-well plate was charged with 1 mL of a chemical solution prepared to have a final concentration of 0.1% acetone and a predetermined concentration of the compound (1), in which 20 to 30 larvae of Heterodera glycines at the second stage were released and left to stand in the dark at 25° C. The number of surviving and moribund worms 2 days after the addition of the chemical solution was measured. In addition, the number of surviving and moribund worms in the untreated group not treating the compound (1) was measured in the same manner, and the corrected mortal worm rate was calculated by the following formula.
Corrected mortal worm rate (%)={(mortal worm rate of treated group−mortal worm rate of untreated group)/(100−mortal worm rate of untreated group)}×100

[6] = test system: Meloidogyne incognita; experiment: Meloidogyne incognita control test (soil irrigation); conditions: cucumber; soil irrigation 100 ppm, 3 mL; 21 days after inoculation
Protocol: Cucumber seeds were sown one by one in a 3 cm styrene cup filled with sterilized soil. After germination, 3 mL each of a chemical solution prepared with 10% acetone water was irrigated into the soil so that the compound (1) would be 100 ppm when irrigated into the soil. After 1 hour, 200 counts/mL of the second stage larval solution of Meloidogyne incognita were inoculated at 1 mL/pot. Then, 21 days after the inoculation, the degree of gall formation on the cucumber root was classified by a visual inspection based on the following 6-level gall formation degree criteria, and the gall index was calculated. In addition, the gall index, in the case of the treated group not treating the compound (1) (untreated), was also calculated in the same manner.
Gall index=(0×a+1×b+2×c+3×d+4×e+5×f)/((a+b+c+d+e+f)×5)×100 a: number of strains that meet the gall formation degree criteria of 0, b: number of strains that meet the gall formation degree criteria of 1, c: number of strains that meet the gall formation degree criteria of 2, d: number of strains that meet the gall formation degree criteria of 3, e: number of strains that meet the gall formation degree criteria of 4, and f: number of strains that meet the gall formation degree criteria of 5. […]

[7] = test system: wheat; experiment: Wheat growth effect test; conditions: 3 days; for Plant Height Relative to Untreated: untreated = 100; for Plant Height: root immersion
Protocol: Each well of a 24-well plate was charged with 200 μL of a chemical solution prepared to have a final concentration of 10% acetone and a predetermined concentration of the compound (1), and the root of the sprouting wheat was immersed therein. Then, 3 days after the immersion, the plant height of the stems and leaves was measured to evaluate the effect of the compound (1) on the growth of wheat. In addition, the plant height of the stems and leaves was also measured for the case of sowing seeds not treated with the compound (1) (untreated). Note that Table 8 also presents the relative values of plant height (relative to untreated) when the untreated case was set to 100.

[8] = test system: Meloidogyne incognita; experiment: Meloidogyne incognita control test 1 (seed dressing); conditions: cucumber; seed dressing 0.5 mg/seed; 21 days after inoculation
Protocol: Cucumber seeds were sown one by one in a 3 cm styrene cup filled with sterilized soil, where the seeds had been subjected to dressing treatment with a dressing dust presented in Formulation Example 1 so that the amount treated of the compound (1) would be a predetermined amount. Then, 10 days after sowing, 200 counts/mL of the second stage larval solution of Meloidogyne incognita was inoculated at 1 mL for each seed. Then, 21 days after the inoculation, the degree of gall formation on the cucumber root was classified by a visual inspection based on the following 6-level gall formation degree criteria, and the gall index was calculated. In addition, the gall index was also calculated in the same manner for the case of sowing seeds treated with paraherquamide A instead of Formulation Example 1 (compound (1)) and for the case of sowing seeds treated with none of the compounds.
Gall index=(0×a+1×b+2×c+3×d+4×e+5×f)/((a+b+c+d+e+f) ×5)×100 • a: number of strains that meet the gall formation degree criteria of 0, b: number of strains that meet the gall formation degree criteria of 1, c: number of strains that meet the gall formation degree criteria of 2, d: number of strains that meet the gall formation degree criteria of 3, e: number of strains that meet the gall formation degree criteria of 4, and f: number of strains that meet the gall formation degree criteria of 5. […]

Structure (SMILES) | Germination Rate [1] [%] | Germination Count [1] | control effect [2] | mortal worm rate [3] | Score (feeding degree of the gray mold) ([4]; 20 μg/cotton ball, 200 ppm) | Gall Index [8] | other results
O=S(=O)(CCC(F)=C(F)F)c1ncc(Cl)s1 [Fluensulfone, fluensulfone, reference compound] | 0 | 0 | – | – | – | – | –
C[C@H]1CCN2C[C@@]34C[C@]5(CC(=O)N(C)C5=O)C(C)(C)[C@@H]3C[C@]12C(=O)N4C [Compound (2), asperparaline A] | 100 | 5 | no effect | 0 | 1 | – | –
Cc1ccsc1/C=C/C1=NCCCN1C [Morantel, morantel, reference compound] | – | – | – | – | – | – | Score (feeding degree of the gray mold) ([4]; 5 μg/cotton ball, 50 ppm): 5
C[C@H]1CC(=O)N2C[C@]34C[C@]5(CC(=O)N(C)C5=O)C(C)(C)[C@@H]3CC12C(=O)N4C [Compound (1), 16-keto-aspergillimide] | 100 | 5 | no effect | 0 | 1 | 8 | corrected mortal worm rate [5]: 100%; Gall Index [6]: 0; Plant Height Relative to Untreated ([7]; 50 ppm): 106.1; Plant Height ([7]; 50 ppm): 9.87 cm; Plant Height Relative to Untreated ([7]; 100 ppm): 98.9; Plant Height ([7]; 100 ppm): 9.20 cm; Plant Height Relative to Untreated ([7]; 200 ppm): 98.9; Plant Height ([7]; 200 ppm): 9.20 cm
CN1C(=O)[C@]23C[C@@H]4C(C)(C)[C@@]5(C[C@@]41CN2CC[C@@]3(C)O)C(=O)Nc1c5ccc2c1OC=CC(C)(C)O2 [Paraherquamide A, paraherquamide A, reference compound] | – | – | – | – | – | 44 | –
